The values that follow come from publication PMC7457137, “An Integrated Pharmacokinetic Study of an Acanthopanax senticosus Extract Preparation by Combination of Virtual Screening, Systems Pharmacology, and Multi-Component Pharmacokinetics in Rats” (Frontiers in Pharmacology, 2020).

Like-named read-outs stand apart in the source and are kept apart here.

Data set [1] is described as follows: Multi-component PK in rats after i.v. administration of ASEP. Format: in vivo, Sprague-Dawley rats. The conditions noted are these: for ingredient concentration in rat plasma: PK time points 2.5, 5, 10, 15 and 20 min after single i.v. 3.52 ml/kg of 5 times concentrated ASEP, preliminary examination; for AUC0-∞ / AUC(0-t) / Cl / MRT0-∞ / Vd / t 1/2 / MRT0-t / AUC(0-inf) / clearance / MRT last / MRT inf / half-life: rat plasma, mean ± SD, n=3; for AUC(0-inf): read-out: AUC0-∞; for clearance: read-out: Cl (converted); for MRT last: read-out: MRT0-t; for MRT inf: read-out: MRT0-∞; for half-life: read-out: t 1/2 (converted). Here is the method: The animal experiments were conducted in line with the Guide for the Care and Use of Laboratory Animals (published by the USA National Institutes of Health, NIH Publication no. 85-23, revised 1996), which were approved by the Animal Care and Use Committee of the College of Animal Science (College of Bee Science), Fujian Agriculture and Forestry University (Approval Number: […]2019004). […] All rats were acclimated to the facilities and environment for 7 days before the experiments. […] The gradient elution was carried out by the mobile phase water with 0.1% formic acid (A) and methanol (B). […] The column temperature and flow rate were at 35 °C and 0.5 ml/min, resepectively. 5 μl sample solution was injected for the HPLC-MS analysis. The electrospray ionization (ESI) source conditions were as follows: block heating temperature was kept at 400 °C; desolvation line temperature was set at 250 °C; dry gas (nitrogen) flow rate was kept at 15 L/min; and auxiliary gas (nitrogen) flow rate was 3 L/min. […] The plasma samples were separated by centrifugation, followed by storing at -20 °C before analysis. […] A DAS 3.0 software (Chinese Pharmacologic Society, Beijing, China) was used to calculate the noncompartmental PK parameters. All the results were presented as mean ± SD, and statistics analysis was done with a single-tailed Student's t test in the work.

Data set [2] can be described thus: Stability of the compounds in rat plasma (LC-MS validation). Format: in vitro ADME. An excerpt: According to the “Guidelines for non-clinical pharmacokinetics of drugs” issued by Centre for Drug Evaluation, National Medical Products Administration, China ([Guidelines for non-clinical pharmacokinetics of drugs, 2014]), the LC-MS method was validated by linearity, limits of detection (LOD), limits of quantification (LOQ), precision, accuracy, extraction recovery, matrix effect and stability of the 6 compounds in rat plasma. In brief, blank rat plasma was obtained from the other six rats. The standard mixture solution containing the 6 compounds (with the concentration of 1 mg/ml for each) was diluted with […] to prepare a series of working solution containing the 6 compounds (concentration level: 20, 50, 100, 250, 500 ng/ml and 1, 2.5, 5, 10, 25, 50, 100, 125 150, 200 μg/ml) and IS (2.5μg/ml). For calibration curve, 10 μl of the series of working solution containing the IS (2.5μg/ml) was added into 100 μl of blank plasma. Finally, 15 data points (2, 5, 10, 25, 50, 100, 250, 500 ng/ml and 1, 2.5, 5, 10, 12.5 15, 20 μg/ml) were used in the calibration curve linearity. Calibration curves were plotted by weighted linear regression of the peak area ratio of analyte to the IS against the related nominal concentration of the analyte. LOD and LOQ were defined as the detectable concentration at which the ratio of signal to noise was about 3 and 10, respectively ([Huang et al., 2019]). […] The extraction recovery and matrix effect were also assessed at the above-mentioned three concentration levels for the 6 ingredients in the spiked plasma samples ([Huang et al., 2019]). Stability was examined under the condition of setting un-treated plasma samples at ambient temperature for 6 h, and extracted plasma samples in auto-sampler for 10 h, as well as setting plasma samples for three freeze-thaw cycles and at −80°C for 15 days ([Guidelines for non-clinical pharmacokinetics of drugs, 2014]).

The subject of data set [3] is human umbilical vein endothelial cells. The arrangement: method as in Lin et al., 2017; Hu et al., 2018. Particulars: ref Lin et al., 2017, Hu et al., 2018; cited from earlier work.
For a further data set, the system named is zebrafish model. Also on record: method as in Lin et al., 2017; Hu et al., 2018. The conditions noted are these: ref Lin et al., 2017, Hu et al., 2018; cited from earlier work.
For data set [4] the following is noted: rat, in vivo; cited from earlier work.
[5] abbreviates: High group: single i.v. 3.52 ml/kg of 5 times concentrated ASEP.
Where [6] appears, read: Low group: single i.v. 1.76 ml/kg of 5 times concentrated ASEP.
Setting [7] is: extracted plasma samples, 10h in auto-sampler vials, high spiked level (HQC, 8000-16000 ng/mL).
Setting [8] is: extracted plasma samples, 10h in auto-sampler vials, low spiked level (LQC, 5-30 ng/mL).
Where [9] appears, read: extracted plasma samples, 10h in auto-sampler vials, middle spiked level (MQC, 400-1600 ng/mL).
[10] abbreviates: rat plasma, 6h at room temperature, high spiked level (HQC, 8000-16000 ng/mL).
Where [11] appears, read: rat plasma, 6h at room temperature, low spiked level (LQC, 5-30 ng/mL).
[12] abbreviates: rat plasma, 6h at room temperature, middle spiked level (MQC, 400-1600 ng/mL).
[13] abbreviates: rat plasma, freeze-thaw stability (three cycles), high spiked level (HQC, 8000-16000 ng/mL).
The mark [14] stands for this setting: rat plasma, freeze-thaw stability (three cycles), low spiked level (LQC, 5-30 ng/mL).
[15] abbreviates: rat plasma, freeze-thaw stability (three cycles), middle spiked level (MQC, 400-1600 ng/mL).
Setting [16] is: rat plasma, long-term stability (-80℃,15 days), high spiked level (HQC, 8000-16000 ng/mL).
[17] abbreviates: rat plasma, long-term stability (-80℃,15 days), low spiked level (LQC, 5-30 ng/mL).
Where [18] appears, read: rat plasma, long-term stability (-80℃,15 days), middle spiked level (MQC, 400-1600 ng/mL).
The mark [19] stands for this setting: male, Sprague-Dawley, rat, plasma, iv, 1.76 ml/kg, Low group: single i.v. 1.76 ml/kg of 5 times concentrated ASEP.
[20] abbreviates: male, Sprague-Dawley, rat, plasma, iv, 3.52 ml/kg, High group: single i.v. 3.52 ml/kg of 5 times concentrated ASEP.

In the case of `O=C(/C=C/c1ccc(O)c(O)c1)OC1[C@H](O)CC(O)(C(=O)O)C[C@H]1O` (stereo partly drawn) [4-CQA], in data set [1], the “ingredient concentration in rat plasma” value was over 0.5 ng/mL. Also, the “AUC0-∞” value in data set [1] (setting [5]) was 3,161.48 ± 69.18 h·ng/ml; in data set [1] (setting [6]), 1,750.59 ± 64.24 h·ng/ml. The values for the AUC(0-t) in data set [1] (setting [5]) and in data set [1] (setting [6]) were 3,156.93 ± 68.74 h·ng/ml and 1,747.89 ± 64.52 h·ng/ml, respectively. The Cl is given as 0.80 ± 0.02 L/h in data set [1] (setting [5]) and 0.73 ± 0.03 L/h in data set [1] (setting [6]). The “MRT0-∞” value in data set [1] (setting [5]) is 25.8 ± 0.6 min; in data set [1] (setting [6]) it was 22.2 ± 0 min. Further, the figures for the Vd in data set [1] (setting [5]) and in data set [1] (setting [6]) were 0.76 ± 0.02 L and 0.98 ± 0.11 L, respectively. The “t 1/2” value in data set [1] (setting [5]) stood at 39.6 ± 0.6 min; in data set [1] (setting [6]), 55.8 ± 4.8 min. In data set [1] (setting [6]), the MRT0-t is 21.6 ± 0 min. Also, the “Stability, RE” value was -6.85% in data set [2] (setting [7]); -16.89% in data set [2] (setting [8]); 14.39% in data set [2] (setting [9]); -7.63% in data set [2] (setting [10]); -6.42% in data set [2] (setting [11]); 9.60% in data set [2] (setting [12]). Besides, the “Stability, RE” value in data set [2] (setting [13]) is -3.17%; in data set [2] (setting [14]), 19.90%; in data set [2] (setting [15]) it was -0.64%; in data set [2] (setting [16]), -1.64%; in data set [2] (setting [17]), 17.58%; in data set [2] (setting [18]) it was 14.43%.

As to `O=C(/C=C/c1ccc(O)c(O)c1)O[C@@H]1C[C@@](O)(C(=O)O)C[C@@H](O)[C@@H]1O` [5-CQA, 5-caffeoylquinic acid], in data set [1] (setting [5]), the “AUC0-∞” value is 4,013.66 ± 42.67 h·ng/ml, the AUC(0-t) is given as 4,006.71 ± 42.76 h·ng/ml, the Cl is 0.86 ± 0.01 L/h and the MRT0-t amounted to 19.8 ± 0 min. Moreover, the “MRT0-∞” value in data set [1] (setting [5]) is 21 ± 0 min. Moreover, in data set [1] (setting [6]), the “AUC0-∞” value is reported as 2,249.80 ± 109.69 h·ng/ml, the AUC(0-t) is 2,244.68 ± 109.65 h·ng/ml, the Cl came out at 0.77 ± 0.04 L/h and the MRT0-t came to 26.4 ± 1.2 min. Moreover, the “MRT0-∞” value in data set [1] (setting [6]) was 27.6 ± 1.2 min.

In the case of `O=C(O)c1ccc(O)c(O)c1` [PCA, protocatechuic acid], the “ingredient concentration in rat plasma” value in data set [1] is over 0.5 ng/mL. Also, the AUC(0-t) came out at 0.202 ± 0.00482 µg·h/mL in data set [1] (male, Sprague-Dawley, rat, plasma, iv, 1.76 ml/kg, Low group: single i.v. 1.76 ml/kg of 5 times concentrated ASEP, read-out: AUC0-t) and 0.308 ± 0.0142 µg·h/mL in data set [1] (male, Sprague-Dawley, rat, plasma, iv, 3.52 ml/kg, High group: single i.v. 3.52 ml/kg of 5 times concentrated ASEP, read-out: AUC0-t). The AUC(0-inf) in data set [1] (setting [19]) worked out at 0.204 ± 0.00508 µg·h/mL; in data set [1] (setting [20]), 0.31 ± 0.0141 µg·h/mL. Further, the clearance is 96 mL/min in data set [1] (setting [19]) and 126 mL/min in data set [1] (setting [20]). Moreover, the MRT last in data set [1] (setting [19]) was determined as 15 ± 0.6 min; in data set [1] (setting [20]), 18 ± 0.6 min. Besides, the MRT inf is 16.8 ± 1.2 min in data set [1] (setting [19]) and 19.2 ± 0.6 min in data set [1] (setting [20]). The Vd in data set [1] (male, Sprague-Dawley, rat, plasma, iv, 1.76 ml/kg, Low group: single i.v. 1.76 ml/kg of 5 times concentrated ASEP, read-out: Vd) worked out at 2.91 ± 0.07 L; in data set [1] (male, Sprague-Dawley, rat, plasma, iv, 3.52 ml/kg, High group: single i.v. 3.52 ml/kg of 5 times concentrated ASEP, read-out: Vd), 4.39 ± 0.22 L. The half-life in data set [1] (setting [19]) is 21 ± 0.6 min; in data set [1] (setting [20]), 24 min. In addition, the “Stability, RE” value in data set [2] (setting [7]) is recorded as -5.63%; in data set [2] (setting [8]) it was -2.62%; in data set [2] (setting [9]) it was -6.89%; in data set [2] (setting [10]), 0.16%; in data set [2] (setting [11]), -6.60%; in data set [2] (setting [12]), -4.01%. The “Stability, RE” value in data set [2] (setting [13]) is recorded as -0.14%; in data set [2] (setting [14]) it was -0.31%; in data set [2] (setting [15]) it was 0.85%; in data set [2] (setting [16]), -10.60%; in data set [2] (setting [17]), -9.72%; in data set [2] (setting [18]), -3.16%. For the same compound, the “effect on VEGF-induced angiogenesis” value (in data set [3]; in the data set on zebrafish model) was “significant inhibitory effects” throughout.

For the compound `COc1cc2ccc(=O)oc2c(OC)c1O` [isofraxidin], the “elimination in cerebral ischemia-reperfusion rats compared with the normal group” value in data set [4] was “changed”.
